Data from US7091351B2, “Vanadium compounds for treating cancer” (Parker Hughes Institute, priority 1998, dated 2006).

Assays:
Format in all cases: cell-based, human
[1] = tested on: Ntera-2 testicular cancer cells; assay: Flow cytometric TUNEL apoptosis assay, NTERA-2 cells; conditions: 24 h, TUNEL-positive nuclei
Protocol: (§1) A flow cytometric two-color terminal […] transferase (TdT)-mediated digoxigenin-uridine triphosphate (dUTP) nick-end labeling assay (TUNEL) was employed to detect apoptotic nuclei. Gavrieli, Y., Sherman, Y., Ben-Sasson, S. A. Identification of programmed cell death in situ via specific labeling of nuclear DNA fragmentation. J. Cell Biol., 119: 493–501, 1992. Exponentially growing cells (10^6/ml) were incubated in DMSO alone (0.1%) or treated with 100 μM each of the 16 vanadocenes (VDB, VDC, VMDC, VDI, VDA, VDCN, VDOCN, VDSCN, VDSeCN, VDT, VDCO, VDFe, VD(acac), VDH, VD(dpy), and VD(dtc) in 0.1% DMSO for 24 h. Cells were washed in PBS, fixed in 4% paraformaldehyde in PBS for 15 min on ice. Following two washings in PBS, they were permeabilized with 0.1% Triton X-100 in 0.1% sodium citrate for 2 min on ice, and washed twice in PBS. Labeling of exposed 3′-hydroxyl (3′-OH) ends of fragmented nuclear DNA was performed using TdT and fluorescein isothiocyanate (FITC)-conjugated dUTP according to the manufacturer's recommendations (Boehringer Mannheim, Indianapolis, Ind.). Cells were counterstained with 5 μg/ml PI. Control samples included: (i) untreated cells; (ii) cells incubated with the reaction mixture without the TdT enzyme. Cells were analyzed with a FACS Calibur flow cytometer (Becton Dickinson, Mountain View, Calif.). Relative DNA content (PI) was detected with band-pass filter 585/42, and dUTP incorporation (FITC) was detected with band-pass filter 530/30. Fluorescence was compensated for in the acquisition software using single-label control samples. Data were acquired in listmode, gated to 10,000 events per sample, and analyzed with the use of CELLQuest software program (Becton Dickinson). […] Vanadocene-induced apoptosis is shown by an increase in the number of cells staining with FITC-dUTP. The M1 and M2 gates were used to demarcate non-apoptotic and apoptotic PI-counterstained cell populations, respectively. TUNEL assays were performed using two testicular cell lines Tera-2 and Ntera-2 following exposure to each of the 16 vanadocenes. In other experiments, MC540 binding (as an early marker of apoptosis) and PI permeability (as a marker of advanced stage apoptosis) were simultaneously measured in human cancer cells 24 hours after exposure to vanadocenes, as previously described. Uckun, F. M., Narla, R. K., Jun, X., Zeren, T., Venkatachalam, T., Waddick, K. G., Rostostev, A., Myers, D. E. Cytotoxic activity of EGF-genstein against breast cancer cells. Clin. Cancer Res. 4:901–912, 1998. Vassilev, A., Ozer, Z., Navara, C., Mahajan, S., and Uckun, F. M. Bruton's tyrosine kinase as an inhibitor of the Fas/CD95 death-inducing signaling complex. J. Biol. Chem. 274:1646–56, 1999. Whole cells were analyzed using a FACStar Plus flow cytometer (Becton Dickinson, San Jose, Calif.). All analyses were done using 488 nm excitation from an argon laser. MC540 and PI emissions were split with a 600 nm short pass dichroic mirror and a 575 nm band pass filter was placed in front of one photomultiplier tube to measure MC540 emission and a 635 nm band pass filter was used for PI emission.

[2] = tested on: Tera-2 testicular cancer cells; assay: MTT cytotoxicity assay of vanadocenes, TERA-2 cells; conditions: 24 h, 1.9-250 μM
Protocol: (§2) Human testicular cancer cell lines, Tera-2 (embryonal carcinoma) and Ntera-2 (pluripotent embryonal carcinoma) were obtained from the American Type Culture Collection (ATCC) (Rockeville, Md.) and propagated in T-25, T-75, or T-150 cm^2 tissue culture flasks (Corning Corp., Corning, N.Y.) in McCoy's 5A medium and Dulbecco's modified Eagle's medium respectively. Both media were supplemented with 10% fetal calf serum (FCS), 4 mM glutamine, 100 U/ml penicillin G, and […] streptomycin sulfate. All tissue culture reagents were obtained from Life Technologies Inc. (GIBCO-BRL), Gaithersburg, Md. Cell lines were cultivated for a minimum of two passages after thawing prior to experimentation. Other cell lines that were used in this study were the human B-lineage acute lymphoblastic leukemia (ALL) cell line NALM-6. Uckun, F. M., Evans, W. E., Forsyth, C. J., Waddick, K. G., Tuel-Ahlgren, L., Chelstrom, L. M., Burkhardt, A., Bolen, J., Myers, D. E. Biotherapy of B-cell precursor leukemia by targeting genistein to CD19-associated tyrosine kinase. Science (Washington DC) 267:886–91, 1995; T-lineage ALL cell line MOLT-3, Waurzyniak, B., Shneider, E. A., Tumer, N., Yanishevski, Y., Gunther, R., Chelstrom, L., Wendorf, H., Myers, D. E., Irvin, J. D., Messinger, Y., Ek, O., Zeren, T., Chandan-Langlie, M., Evans, W. E., Uckun, F. M. In vivo toxicity, pharmacokinetics, and antileukemic activity of TXU (anti-CD7)-pokeweed antiviral protein immunotoxin. Clinical Cancer Research 3:881–890, 1997; AML cell line HL-60, Perentesis, J. P., Waddick, K. G., Bendel, A. E., Shao, Y., Warman, B. E., Chandan-Langlie, M., and Uckun, F. M. Induction of apoptosis in multi-drug resistant andradiation-resistant acute myeloid leukemia cells by a recombinant fusion toxin directed against the granulocyte macrophage colony stimulating factor receptor. Clin. Cancer Res. 3:347–355, 1997; breast cancer cell lines MDA-MB-231 and BT-20, Uckun, F. M., Narla, R. K., Jun, X., Zeren, T., Venkatachalam, T., Waddick, K. G., Rostostev, A., Myers, D. E. Cytotoxic activity of EGF-genstein against breast cancer cells. Clin. Cancer Res. 4:901–912, 1998; glioblastoma cell lines U87 and U373, Narla, R. K., Liu, X., Myers, D. E., and Uckun, F. M. 4-(3′-Bromo-4′hydroxylphenyl)-amino-6,7-dimethoxyquinazoline (WHI-P154): A novel quinazoline derivative with potent cytotoxic activity against human glioblastoma cells. Clin. Cancer Res. 4:1405–1414, 1998.
(§3) MTT (3-[4,5-dimethyl thiazol-2-yl]-2,5-diphenyltetrazolium bromide)-based colorimetric assays were used for evaluation of the cytotoxicity of vanadocene compounds. Mosmann, T. Rapid colorimetric assay for cellular growth and survival: application to proliferation and cytotoxicity assays. J. Immunol. Methods, 65: 55–63, 1983. Briefly, cells were harvested with 0.125% (w/v) trypsin-0.02% EDTA (GIBCO-BRL) from exponential-phase maintenance cultures and centrifuged (300 g×5 min). After suspension and counting, cells were dispensed within triplicate 96-well tissue culture plates in 100 μl volumes. After 24 h incubation, the culture medium was discarded and replaced with 100 μl of fresh medium containing serial two-fold dilutions of drugs in medium to yield 1.9 μM to 250 μM. All compounds were reconstituted in DMSO to a concentration of 100 mM, and the stock solution was made fresh for each experiment. Control wells consisted of medium containing 0.25% of DMSO alone were used for solvent control. Culture plates were then incubated for 24 h before adding 10 μl of MTT solution (5 mg/ml in PBS) to each well. Wells containing only medium and MTT were used as controls for each plate. The tetrazolium/formazan reaction was allowed to proceed for 4 h at 37° C., and then 100 μl of the solubilization buffer (10% sodium dodecyl sulfate in 0.1% HCl) were added to all wells and mixed thoroughly to dissolve the dark blue formazan crystals. […]

U373 glioblastoma cells = assay: MTT cytotoxicity assay of vanadocenes, U373 cells; conditions: 24 h
Protocol: as §2, §3

[3] = tested on: Tera-2 testicular cancer cells; assay: Flow cytometric TUNEL apoptosis assay, TERA-2 cells; conditions: 24 h, TUNEL-positive nuclei
Protocol: as §1

[4] = tested on: Ntera-2 testicular cancer cells; assay: MTT cytotoxicity assay of vanadocenes, NTERA-2 cells; conditions: 24 h, 1.9-250 μM
Protocol: as §2, §3

| Compound | % Apoptosis at 100 μM NTERA-2 [1] | IC50 [2] [µM] | IC50 (U373 glioblastoma cells) [µM] | % Apoptosis at 100 μM TERA-2 [3] | IC50 [4] [µM] |
| --- | --- | --- | --- | --- | --- |
| Cc1c(C)c(C)[c-](C)c1C.Cc1c(C)c(C)[c-](C)c1C.[Cl-].[Cl-].[V+2] [VPMDC, V(Me5Cp)2Cl2] | 34 (33, 35) % | 127 | 172 | 35 (35, 36) % | 44 |
| [Cl-].[N-]=C=O.[V+2].c1cc[cH-]c1.c1cc[cH-]c1 [VDCO, VCp2(NCO)Cl] | 98 (97, 99) % | 50 |  | 73 (67, 78) % | 90 |
| VCp2(NCS)2.0.5H2O [VDSCN] | 53 (46, 60) % | 23 | 19 | 64 (58, 69) % | 17 |
| VCp2(NCO)2 [VDOCN] | 95 (94, 96) % | 31 |  | 85 (80, 90) % | 63 |
| CC(=O)[CH-]C(C)=O.O=S(=O)([O-])C(F)(F)F.[V+4].c1cc[cH-]c1.c1cc[cH-]c1 [VD(acac), VCp2(acac)(O3SCF3)] | 48 ± 13 (N = 3) % | 64 |  | 72 ± 17% | 75 |
| MoCp2Cl2 [MDC] |  | > 250 | > 250 |  | > 250 |
| CC#N.[Cl-].[Cl-].[Cl-].[Cl-].[Cl-].[Fe+3].[V+4].c1cc[cH-]c1.c1cc[cH-]c1 [VDFe, VCp2Cl (CH3CN)(FeCl4)] | 87 (81, 94) % | 100 |  | 85 (84, 87) % | 113 |
| V(Me5Cp)OCl [VPMOC] | 6 (6, 7) % | > 250 |  | 5 (5, 6) % | 77 |
| VCp2(H) [VDH] | 20 ± 5 (N = 3) % | 118 | > 250 | 84 ± 2 (N = 3) % | 125 |
| [O-]c1ccccc1[O-].[V+2].c1cc[cH-]c1.c1cc[cH-]c1 [VD(cat), Cp2V(cat)] | 12 (9, 15) % | 79 |  |  | 93 |
| V(MeCp)2Cl2.0.5 H2O [VMDC] | 13 (13, 14) % | 123 | 61 | 45 (27, 61) % | 86 |
| VCp2(dtc) [VD(dtc)] | 67 ± 13 (N = 3) % | 60 | 7 | 83 (82, 84) % | 83 |
| O=S(=O)(O)C(F)(F)F.O=S(=O)(O)C(F)(F)F.[V+2].c1cc[cH-]c1.c1cc[cH-]c1 [VDT, VCp2(O3SCF3)2] | 55 ± 26 (N = 4) % | 76 |  | 71 (71, 71) % | 137 |
| VCp2(bpy)(O3SCF3)2 [VD(bpy)] | 78 (77, 78) % | 37 |  |  | 53 |
| ZrCp2Cl2 [ZDC] |  | > 250 | > 250 |  | > 250 |
| VCp2(PH) [VDPH] | 90 ± 3 (N = 4) % | > 250 |  | 88 ± 3 (N = 3) % | 61 |
| TiCp2Cl2 [TDC] |  | > 250 | > 250 |  | > 250 |
| HfCp2Cl2 [HDC] |  | > 250 | > 250 |  | > 250 |
